In PubChem BioAssay (NCI):
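Following 48 hours of exposure in 96-well plates, responses at five concentrations were used to interpolate endpoints linearly. Here, GI50 denotes the concentration required for 50% inhibition of growth. TGI denotes the concentration required for complete inhibition of growth.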

Tests used:
Assay in all cases: NCI tumour cell line growth inhibition, 48 h
DU-145 prostate = tested on: DU-145 prostate
COLO 205 colon = tested on: COLO 205 colon
SW-620 colon = tested on: SW-620 colon
NCI-H23 lung = tested on: NCI-H23 lung
EKVX NSCLC = tested on: EKVX NSCLC
OVCAR-3 ovarian = tested on: OVCAR-3 ovarian
MALME-3M melanoma = tested on: MALME-3M melanoma
UO-31 renal = tested on: UO-31 renal
A498 renal = tested on: A498 renal
CAKI-1 renal = tested on: CAKI-1 renal
MDA-MB-435 = tested on: MDA-MB-435
ACHN renal = tested on: ACHN renal
MOLT-4 leukemia = tested on: MOLT-4 leukemia
SF-268 CNS = tested on: SF-268 CNS
SK-MEL-5 melanoma = tested on: SK-MEL-5 melanoma
SNB-75 CNS = tested on: SNB-75 CNS
HCC-2998 colon = tested on: HCC-2998 colon
RPMI-8226 leukemia = tested on: RPMI-8226 leukemia
PC-3 prostate = tested on: PC-3 prostate
UACC-257 melanoma = tested on: UACC-257 melanoma
MDA-MB-231 breast = tested on: MDA-MB-231 breast
HL-60(TB) leukemia = tested on: HL-60(TB) leukemia
MCF7 breast = tested on: MCF7 breast
UACC-62 melanoma = tested on: UACC-62 melanoma
IGROV1 ovarian = tested on: IGROV1 ovarian
A549 NSCLC = tested on: A549 NSCLC
LOX IMVI melanoma = tested on: LOX IMVI melanoma
BT-549 breast = tested on: BT-549 breast
OVCAR-5 ovarian = tested on: OVCAR-5 ovarian
SK-MEL-2 melanoma = tested on: SK-MEL-2 melanoma
OVCAR-8 ovarian = tested on: OVCAR-8 ovarian
SNB-19 CNS = tested on: SNB-19 CNS
NCI-H226 lung = tested on: NCI-H226 lung
SN12C renal = tested on: SN12C renal
NCI-H460 lung = tested on: NCI-H460 lung
NCI/ADR-RES ovarian = tested on: NCI/ADR-RES ovarian
KM12 colon = tested on: KM12 colon
HCT-116 colon = tested on: HCT-116 colon
HOP-92 NSCLC = tested on: HOP-92 NSCLC
TK-10 renal = tested on: TK-10 renal
SK-MEL-28 melanoma = tested on: SK-MEL-28 melanoma
OVCAR-4 ovarian = tested on: OVCAR-4 ovarian
MDA-MB-468 breast = tested on: MDA-MB-468 breast
U251 CNS = tested on: U251 CNS
CCRF-CEM leukemia = tested on: CCRF-CEM leukemia
SF-295 CNS = tested on: SF-295 CNS
786-0 renal = tested on: 786-0 renal
T-47D breast = tested on: T-47D breast
HCT-15 colon = tested on: HCT-15 colon
HT29 colon = tested on: HT29 colon
SK-OV-3 ovarian = tested on: SK-OV-3 ovarian
M14 melanoma = tested on: M14 melanoma
HS 578T breast = tested on: HS 578T breast
SR leukemia = tested on: SR leukemia
SF-539 CNS = tested on: SF-539 CNS
K-562 leukemia = tested on: K-562 leukemia
HOP-62 NSCLC = tested on: HOP-62 NSCLC
NCI-H522 lung = tested on: NCI-H522 lung

SMILES: CC12OOC(C)(OO1)C2CCC(=O)OCCNc1ccnc2cc(Cl)ccc12 (stereo unspecified)
- GI50 (DU-145 prostate): 3.47 µM
- TGI (DU-145 prostate): 6.32 µM
- GI50 (COLO 205 colon): 3.57 µM
- TGI (COLO 205 colon): 10.8 µM
- GI50 (SW-620 colon): 5.83 µM
- TGI (SW-620 colon): > 18.3 µM
- GI50 (NCI-H23 lung): > 18.3 µM
- TGI (NCI-H23 lung): > 18.3 µM
- GI50 (EKVX NSCLC): > 18.3 µM
- TGI (EKVX NSCLC): > 18.3 µM
- GI50 (OVCAR-3 ovarian): 3.71 µM
- TGI (OVCAR-3 ovarian): 7.21 µM
- GI50 (MALME-3M melanoma): 3.1 µM
- TGI (MALME-3M melanoma): 5.98 µM
- GI50 (UO-31 renal): 2.57 µM
- TGI (UO-31 renal): 4.94 µM
- GI50 (A498 renal): > 18.3 µM
- TGI (A498 renal): > 18.3 µM
- GI50 (CAKI-1 renal): 3.21 µM
- TGI (CAKI-1 renal): 5.96 µM
- GI50 (MDA-MB-435): 18.3 µM
- TGI (MDA-MB-435): > 18.3 µM
- GI50 (ACHN renal): 1.59 µM
- TGI (ACHN renal): 3.81 µM
- GI50 (MOLT-4 leukemia): 16.8 µM
- TGI (MOLT-4 leukemia): > 18.3 µM
- GI50 (SF-268 CNS): > 18.3 µM
- TGI (SF-268 CNS): > 18.3 µM
- GI50 (SK-MEL-5 melanoma): > 18.3 µM
- TGI (SK-MEL-5 melanoma): > 18.3 µM
- GI50 (SNB-75 CNS): > 18.3 µM
- TGI (SNB-75 CNS): > 18.3 µM
- GI50 (HCC-2998 colon): > 18.3 µM
- TGI (HCC-2998 colon): > 18.3 µM
- GI50 (RPMI-8226 leukemia): 8.81 µM
- TGI (RPMI-8226 leukemia): > 18.3 µM
- GI50 (PC-3 prostate): > 18.3 µM
- TGI (PC-3 prostate): > 18.3 µM
- GI50 (UACC-257 melanoma): > 18.3 µM
- TGI (UACC-257 melanoma): > 18.3 µM
- GI50 (MDA-MB-231 breast): > 18.3 µM
- TGI (MDA-MB-231 breast): > 18.3 µM
- GI50 (HL-60(TB) leukemia): > 18.3 µM
- TGI (HL-60(TB) leukemia): > 18.3 µM
- GI50 (MCF7 breast): 7.76 µM
- TGI (MCF7 breast): > 18.3 µM
- GI50 (UACC-62 melanoma): > 18.3 µM
- TGI (UACC-62 melanoma): > 18.3 µM
- GI50 (IGROV1 ovarian): 6.59 µM
- TGI (IGROV1 ovarian): > 18.3 µM
- GI50 (A549 NSCLC): 4.17 µM
- TGI (A549 NSCLC): 12.2 µM
- GI50 (LOX IMVI melanoma): 2.87 µM
- TGI (LOX IMVI melanoma): 5.39 µM
- GI50 (BT-549 breast): > 18.3 µM
- TGI (BT-549 breast): > 18.3 µM
- GI50 (OVCAR-5 ovarian): > 18.3 µM
- TGI (OVCAR-5 ovarian): > 18.3 µM
- GI50 (SK-MEL-2 melanoma): > 18.3 µM
- TGI (SK-MEL-2 melanoma): > 18.3 µM
- GI50 (OVCAR-8 ovarian): 16.8 µM
- TGI (OVCAR-8 ovarian): > 18.3 µM
- GI50 (SNB-19 CNS): > 18.3 µM
- TGI (SNB-19 CNS): > 18.3 µM
- GI50 (NCI-H226 lung): 4.19 µM
- TGI (NCI-H226 lung): 14.2 µM
- GI50 (SN12C renal): > 18.3 µM
- TGI (SN12C renal): > 18.3 µM
- GI50 (NCI-H460 lung): 6.3 µM
- TGI (NCI-H460 lung): > 18.3 µM
- GI50 (NCI/ADR-RES ovarian): > 18.3 µM
- TGI (NCI/ADR-RES ovarian): > 18.3 µM
- GI50 (KM12 colon): > 18.3 µM
- TGI (KM12 colon): > 18.3 µM
- GI50 (HCT-116 colon): 3.59 µM
- TGI (HCT-116 colon): 8.67 µM
- GI50 (HOP-92 NSCLC): 2.72 µM
- TGI (HOP-92 NSCLC): 7.92 µM
- GI50 (TK-10 renal): 2.69 µM
- TGI (TK-10 renal): 6.03 µM
- GI50 (SK-MEL-28 melanoma): > 18.3 µM
- TGI (SK-MEL-28 melanoma): > 18.3 µM
- GI50 (OVCAR-4 ovarian): 3.5 µM
- TGI (OVCAR-4 ovarian): 7.42 µM
- GI50 (MDA-MB-468 breast): 2.87 µM
- TGI (MDA-MB-468 breast): 7.73 µM
- GI50 (U251 CNS): > 18.3 µM
- TGI (U251 CNS): > 18.3 µM
- GI50 (CCRF-CEM leukemia): 5.36 µM
- TGI (CCRF-CEM leukemia): 17.5 µM
- GI50 (SF-295 CNS): > 18.3 µM
- TGI (SF-295 CNS): > 18.3 µM
- GI50 (786-0 renal): 4.95 µM
- TGI (786-0 renal): 16.5 µM
- GI50 (T-47D breast): > 18.3 µM
- TGI (T-47D breast): > 18.3 µM
- GI50 (HCT-15 colon): 2.87 µM
- TGI (HCT-15 colon): 5.47 µM
- GI50 (HT29 colon): 3.46 µM
- TGI (HT29 colon): 8.62 µM
- GI50 (SK-OV-3 ovarian): > 18.3 µM
- TGI (SK-OV-3 ovarian): > 18.3 µM
- GI50 (M14 melanoma): 10.8 µM
- TGI (M14 melanoma): > 18.3 µM
- GI50 (HS 578T breast): > 18.3 µM
- TGI (HS 578T breast): > 18.3 µM
- GI50 (SR leukemia): 3.35 µM
- TGI (SR leukemia): 8.03 µM
- GI50 (SF-539 CNS): > 18.3 µM
- TGI (SF-539 CNS): > 18.3 µM
- GI50 (K-562 leukemia): 4.11 µM
- TGI (K-562 leukemia): 11.8 µM
- GI50 (HOP-62 NSCLC): > 18.3 µM
- TGI (HOP-62 NSCLC): > 18.3 µM
- GI50 (NCI-H522 lung): 3.23 µM
- TGI (NCI-H522 lung): 6.53 µM
